Calls of active or inactive are those of the source. How the calls were made is not given here.
Experiments:
Assay in all cases: PubChem AID 1788
[1] = biological target: Voltage-gated inwardly rectifying potassium channel KCNH2 (Homo sapiens) (UniProt Q12809); conditions: MDS Pharma lead profiling panel, radioligand binding; Potassium Channel hERG (human); at 10 µM; hits give high values
[2] = biological target: D(1A) dopamine receptor (Homo sapiens) (UniProt P21728); conditions: MDS Pharma lead profiling panel, radioligand binding; Dopamine D1 (human); at 10 µM; hits give high values
D(1A) dopamine receptor (Homo sapiens), sequence (P21728 whole entry, looked up): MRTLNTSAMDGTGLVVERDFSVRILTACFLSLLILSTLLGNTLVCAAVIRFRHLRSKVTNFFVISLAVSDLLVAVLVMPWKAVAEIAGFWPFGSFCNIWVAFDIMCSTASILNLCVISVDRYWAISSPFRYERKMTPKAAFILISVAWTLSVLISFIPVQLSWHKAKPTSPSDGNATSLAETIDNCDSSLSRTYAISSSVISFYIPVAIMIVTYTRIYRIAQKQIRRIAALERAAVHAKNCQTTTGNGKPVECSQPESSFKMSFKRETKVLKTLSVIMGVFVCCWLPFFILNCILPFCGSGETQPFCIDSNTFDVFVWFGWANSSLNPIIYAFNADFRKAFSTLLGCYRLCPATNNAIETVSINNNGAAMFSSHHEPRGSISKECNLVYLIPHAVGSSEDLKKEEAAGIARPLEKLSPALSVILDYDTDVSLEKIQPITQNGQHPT

[3] = biological target: Mu-type opioid receptor (Homo sapiens) (UniProt P35372); conditions: MDS Pharma lead profiling panel, radioligand binding; Opiate m (OP3, MOP) (human); at 10 µM; hits give high values
Mu-type opioid receptor (Homo sapiens), sequence (P35372 whole entry, looked up): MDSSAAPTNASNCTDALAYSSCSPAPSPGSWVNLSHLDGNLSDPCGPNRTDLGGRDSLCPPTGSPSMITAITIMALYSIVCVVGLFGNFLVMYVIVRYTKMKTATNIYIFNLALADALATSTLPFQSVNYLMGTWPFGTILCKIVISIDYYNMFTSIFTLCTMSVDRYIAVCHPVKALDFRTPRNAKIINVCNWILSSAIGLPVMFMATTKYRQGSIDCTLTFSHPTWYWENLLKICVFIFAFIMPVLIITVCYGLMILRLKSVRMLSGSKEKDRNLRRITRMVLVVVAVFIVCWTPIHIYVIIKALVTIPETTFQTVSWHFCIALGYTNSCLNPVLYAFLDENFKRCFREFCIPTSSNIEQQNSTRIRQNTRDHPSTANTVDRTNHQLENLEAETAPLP

[4] = test system: Vesicular inhibitory amino acid transporter (Rattus norvegicus) + Pro-epidermal growth factor (Homo sapiens) + Acetylcholine receptor subunit alpha (Homo sapiens) + Estrogen receptor (Homo sapiens) + Glucocorticoid receptor (Homo sapiens) + Sodium channel protein type 1 subunit alpha (Rattus norvegicus) + Beta-2 adrenergic receptor (Homo sapiens) + Muscarinic acetylcholine receptor M2 (Homo sapiens) + Beta-1 adrenergic receptor (Homo sapiens) + 5-hydroxytryptamine receptor 1A (Homo sapiens) + Alpha-2A adrenergic receptor (Homo sapiens) + Muscarinic acetylcholine receptor M1 (Homo sapiens) + Interleukin-1 receptor type 1 (Mus musculus) + D(2) dopamine receptor (Homo sapiens) + Androgen receptor (Rattus norvegicus) + Gamma-aminobutyric acid receptor subunit gamma-2 (Rattus norvegicus) + Muscarinic acetylcholine receptor M3 (Homo sapiens) + D(1A) dopamine receptor (Homo sapiens) + D(4) dopamine receptor (Homo sapiens) + Glutamate receptor ionotropic, kainate 1 (Rattus norvegicus) + Sodium-dependent noradrenaline transporter (Homo sapiens) + Endothelin receptor type B (Homo sapiens) + Alpha-1D adrenergic receptor (Homo sapiens) + Endothelin-1 receptor (Homo sapiens) + Substance-P receptor (Homo sapiens) + Neuropeptide Y receptor type 1 (Homo sapiens) + Adenosine receptor A2a (Homo sapiens) + B2 bradykinin receptor (Homo sapiens) + Adenosine receptor A1 (Homo sapiens) + Sodium-dependent serotonin transporter (Homo sapiens) + Neuronal acetylcholine receptor subunit alpha-3 (Homo …; conditions: MDS Pharma lead profiling panel, radioligand binding; at 10 µM; hits give high values
[5] = test system: Sodium Channel, Site 2 (rat); conditions: MDS Pharma lead profiling panel, radioligand binding, at 10 µM, hits give high values
[6] = test system: Histamine H1 (human); conditions: MDS Pharma lead profiling panel, radioligand binding, at 10 µM, hits give high values
[7] = test system: Tachykinin NK1 (human); conditions: MDS Pharma lead profiling panel, radioligand binding, at 10 µM, hits give high values
[8] = biological target: Neuropeptide Y receptor type 2 (Homo sapiens) (UniProt P49146); conditions: MDS Pharma lead profiling panel, radioligand binding; Neuropeptide Y Y2 (human); at 10 µM; hits give high values
Neuropeptide Y receptor type 2 (Homo sapiens), sequence (P49146 whole entry, looked up): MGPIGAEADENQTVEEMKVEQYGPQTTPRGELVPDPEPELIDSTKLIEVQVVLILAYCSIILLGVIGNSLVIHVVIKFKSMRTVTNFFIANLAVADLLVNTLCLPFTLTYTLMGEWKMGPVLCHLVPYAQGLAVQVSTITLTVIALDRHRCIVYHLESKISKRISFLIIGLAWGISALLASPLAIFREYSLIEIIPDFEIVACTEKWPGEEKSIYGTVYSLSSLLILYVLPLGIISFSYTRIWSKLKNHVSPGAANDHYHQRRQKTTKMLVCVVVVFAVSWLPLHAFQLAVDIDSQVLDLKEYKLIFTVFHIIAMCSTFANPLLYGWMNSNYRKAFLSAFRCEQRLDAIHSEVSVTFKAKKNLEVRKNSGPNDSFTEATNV

[9] = test system: Purinergic P2Y (rat); conditions: MDS Pharma lead profiling panel, radioligand binding, at 10 µM, hits give high values
[10] = test system: Imidazoline I2 central (rat); conditions: MDS Pharma lead profiling panel, radioligand binding, at 10 µM, hits give high values
[11] = biological target: D(3) dopamine receptor (Homo sapiens) (UniProt P35462); conditions: MDS Pharma lead profiling panel, radioligand binding; Dopamine D3 (human); at 10 µM; hits give high values
D(3) dopamine receptor (Homo sapiens), sequence (P35462 whole entry, looked up): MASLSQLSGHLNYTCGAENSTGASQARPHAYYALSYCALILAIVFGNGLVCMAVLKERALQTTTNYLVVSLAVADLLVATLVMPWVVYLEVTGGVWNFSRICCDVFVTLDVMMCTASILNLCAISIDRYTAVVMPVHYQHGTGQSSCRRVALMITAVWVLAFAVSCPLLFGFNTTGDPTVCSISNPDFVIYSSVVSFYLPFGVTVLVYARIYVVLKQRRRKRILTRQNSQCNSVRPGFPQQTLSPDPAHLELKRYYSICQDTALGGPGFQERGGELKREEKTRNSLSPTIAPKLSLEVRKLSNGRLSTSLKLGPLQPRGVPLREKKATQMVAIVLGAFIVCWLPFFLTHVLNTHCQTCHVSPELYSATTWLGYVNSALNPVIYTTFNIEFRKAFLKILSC

[12] = biological target: Kappa-type opioid receptor (Homo sapiens) (UniProt P41145); conditions: MDS Pharma lead profiling panel, radioligand binding; Opiate k (OP2, KOP) (human); at 10 µM; hits give high values
Kappa-type opioid receptor (Homo sapiens), sequence (P41145 whole entry, looked up): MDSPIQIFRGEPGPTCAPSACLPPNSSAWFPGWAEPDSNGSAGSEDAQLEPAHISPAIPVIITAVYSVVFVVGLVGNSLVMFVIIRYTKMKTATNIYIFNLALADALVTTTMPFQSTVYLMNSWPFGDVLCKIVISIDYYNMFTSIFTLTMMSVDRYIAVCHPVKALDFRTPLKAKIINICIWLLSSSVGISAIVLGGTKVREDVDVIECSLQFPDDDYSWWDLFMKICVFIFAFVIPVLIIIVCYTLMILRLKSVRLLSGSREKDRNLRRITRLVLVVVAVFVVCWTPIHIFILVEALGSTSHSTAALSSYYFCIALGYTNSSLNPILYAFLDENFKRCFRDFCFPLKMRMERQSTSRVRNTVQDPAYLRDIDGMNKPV

[13] = test system: Histamine H3 (human); conditions: MDS Pharma lead profiling panel, radioligand binding, at 10 µM, hits give high values
[14] = test system: Transporter, Serotonin (5-Hydroxytryptamine) (SERT) (human); conditions: MDS Pharma lead profiling panel, radioligand binding, at 10 µM, hits give high values
[15] = test system: Serotonin (5-Hydroxytryptamine) 5-HT3 (human); conditions: MDS Pharma lead profiling panel, radioligand binding, at 10 µM, hits give high values
[16] = biological target: Delta-type opioid receptor (Homo sapiens) (UniProt P41143); conditions: MDS Pharma lead profiling panel, radioligand binding; Opiate d (OP1, DOP) (human); at 10 µM; hits give high values
Delta-type opioid receptor (Homo sapiens), sequence (P41143 whole entry, looked up): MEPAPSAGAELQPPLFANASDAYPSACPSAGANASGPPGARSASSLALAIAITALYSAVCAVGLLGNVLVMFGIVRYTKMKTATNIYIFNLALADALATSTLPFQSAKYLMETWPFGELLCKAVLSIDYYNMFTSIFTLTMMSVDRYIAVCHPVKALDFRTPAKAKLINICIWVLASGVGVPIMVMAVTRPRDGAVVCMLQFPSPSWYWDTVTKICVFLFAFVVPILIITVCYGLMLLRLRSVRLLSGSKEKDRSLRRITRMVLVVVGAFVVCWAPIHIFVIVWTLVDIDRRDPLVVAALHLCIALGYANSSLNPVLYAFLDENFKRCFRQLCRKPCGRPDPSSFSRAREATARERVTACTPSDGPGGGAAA

[17] = test system: Bradykinin B1 (human); conditions: MDS Pharma lead profiling panel, radioligand binding, at 10 µM, hits give high values
[18] = test system: Transporter, Norepinephrine (NET) (human); conditions: MDS Pharma lead profiling panel, radioligand binding, at 10 µM, hits give high values
[19] = test system: GABA B1A (human); conditions: MDS Pharma lead profiling panel, radioligand binding, at 10 µM, hits give high values
[20] = test system: Endothelin ETA (human); conditions: MDS Pharma lead profiling panel, radioligand binding, at 10 µM, hits give high values
[21] = biological target: Muscarinic acetylcholine receptor M1 (Homo sapiens) (UniProt P11229); conditions: MDS Pharma lead profiling panel, radioligand binding, at 10 µM, hits give high values
Muscarinic acetylcholine receptor M1 (Homo sapiens), sequence (P11229 whole entry, looked up): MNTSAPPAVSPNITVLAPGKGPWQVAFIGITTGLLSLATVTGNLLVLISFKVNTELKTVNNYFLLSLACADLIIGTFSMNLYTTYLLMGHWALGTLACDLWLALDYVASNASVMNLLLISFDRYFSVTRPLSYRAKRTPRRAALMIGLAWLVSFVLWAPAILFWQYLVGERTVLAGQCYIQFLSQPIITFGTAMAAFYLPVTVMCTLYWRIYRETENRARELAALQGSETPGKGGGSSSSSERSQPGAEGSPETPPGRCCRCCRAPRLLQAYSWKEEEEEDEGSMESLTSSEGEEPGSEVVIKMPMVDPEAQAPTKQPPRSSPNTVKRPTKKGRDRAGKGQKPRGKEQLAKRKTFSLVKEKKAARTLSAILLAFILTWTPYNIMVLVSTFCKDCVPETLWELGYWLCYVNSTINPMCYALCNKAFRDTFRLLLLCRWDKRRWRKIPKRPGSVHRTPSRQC

[22] = test system: Prostanoid EP4 (human); conditions: MDS Pharma lead profiling panel, radioligand binding, at 10 µM, hits give high values
[23] = test system: Calcium channel L-type (rat); conditions: MDS Pharma lead profiling panel, radioligand binding, dihydropyridine site, at 10 µM, hits give high values
[24] = test system: Adrenergic a1D (human); conditions: MDS Pharma lead profiling panel, radioligand binding, at 10 µM, hits give high values
[25] = test system: Adrenergic a1A (rat); conditions: MDS Pharma lead profiling panel, radioligand binding, at 10 µM, hits give high values
[26] = test system: Adrenergic b1 (human); conditions: MDS Pharma lead profiling panel, radioligand binding, at 10 µM, hits give high values

Voltage-gated inwardly rectifying potassium channel KCNH2 (Homo sapiens), sequence (Q12809 whole entry, looked up): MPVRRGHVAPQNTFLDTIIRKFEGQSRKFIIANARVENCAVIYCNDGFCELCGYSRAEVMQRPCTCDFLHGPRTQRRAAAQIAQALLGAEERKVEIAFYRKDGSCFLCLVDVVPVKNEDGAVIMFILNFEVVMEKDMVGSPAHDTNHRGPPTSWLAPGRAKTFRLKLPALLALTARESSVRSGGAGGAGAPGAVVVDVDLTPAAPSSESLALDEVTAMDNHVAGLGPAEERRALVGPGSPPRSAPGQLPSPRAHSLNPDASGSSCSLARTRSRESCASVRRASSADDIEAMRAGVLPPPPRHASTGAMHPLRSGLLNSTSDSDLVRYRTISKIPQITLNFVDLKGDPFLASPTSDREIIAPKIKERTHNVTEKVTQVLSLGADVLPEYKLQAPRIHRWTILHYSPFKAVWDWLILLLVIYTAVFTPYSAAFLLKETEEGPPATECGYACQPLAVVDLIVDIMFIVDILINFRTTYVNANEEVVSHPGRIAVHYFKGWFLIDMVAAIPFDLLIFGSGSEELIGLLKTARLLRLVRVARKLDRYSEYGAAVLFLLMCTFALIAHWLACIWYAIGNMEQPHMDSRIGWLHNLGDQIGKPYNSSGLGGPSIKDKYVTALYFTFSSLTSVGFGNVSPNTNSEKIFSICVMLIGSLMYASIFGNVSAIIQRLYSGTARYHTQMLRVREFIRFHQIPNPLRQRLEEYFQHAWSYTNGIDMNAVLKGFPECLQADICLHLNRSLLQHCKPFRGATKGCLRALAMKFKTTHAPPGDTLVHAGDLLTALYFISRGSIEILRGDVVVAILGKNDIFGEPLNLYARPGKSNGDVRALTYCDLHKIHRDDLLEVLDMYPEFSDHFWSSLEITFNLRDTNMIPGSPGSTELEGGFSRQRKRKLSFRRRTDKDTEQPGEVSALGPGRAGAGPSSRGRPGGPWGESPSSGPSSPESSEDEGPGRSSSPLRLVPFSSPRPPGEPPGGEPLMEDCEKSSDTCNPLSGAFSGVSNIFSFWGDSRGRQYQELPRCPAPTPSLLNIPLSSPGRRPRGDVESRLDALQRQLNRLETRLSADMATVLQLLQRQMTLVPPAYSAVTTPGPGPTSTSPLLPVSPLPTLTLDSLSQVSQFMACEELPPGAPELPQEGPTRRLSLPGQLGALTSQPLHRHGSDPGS

## CCOC(=O)N1CCC(NCCNC(=O)c2ccccc2C)CC1
[1]
  inhibition: 1% (inactive)
[2]
  inhibition: 5% (inactive)
[3]
  inhibition: -4% (inactive)
[4]
  inhibition: -8% (inactive)
[5]
  inhibition: -7% (inactive)
[6]
  inhibition: -4% (inactive)
[7]
  inhibition: -8% (inactive)
[8]
  inhibition: 12% (inactive)
[9]
  inhibition: -2% (inactive)
[10]
  inhibition: 19% (inactive)
[11]
  inhibition: 48% (inactive)
[12]
  inhibition: -2% (inactive)
[13]
  inhibition: 11% (inactive)
[14]
  inhibition: -5% (inactive)
[15]
  inhibition: 2% (inactive)
[16]
  inhibition: -7% (inactive)
[17]
  inhibition: 8% (inactive)
[18]
  inhibition: 1% (inactive)
[19]
  inhibition: -22% (inactive)
[20]
  inhibition: 8% (inactive)
[21]
  inhibition: 19% (inactive)
[22]
  inhibition: 3% (inactive)
[23]
  inhibition: -8% (inactive)
[24]
  inhibition: 28% (inactive)
[25]
  inhibition: 53%
[26]
  inhibition: 4% (inactive)

Reference: PubChem BioAssay AID1788 (Vanderbilt High Throughput Screening Facility, 2009)
